In patent US20230285405A1, “Pharmaceuticals for Treating or Preventing Nidoviruses and Picornaviruses” (priority 2020, published 2023):
Counter-ions that a name gives are not always drawn. Like-named read-outs stand apart in the source and are kept apart here.

How the values were obtained:
A549-mRuby cells = assay: Drug screening: effect on cell growth (cell number day 4 / day 0); details: 10 μM drug; for Growth_1: number of cells at day 4 divided by number of cells at day 0 / toxic_1: repeat #1; for Growth_2: number of cells at day 4 divided by number of cells at day 0 / toxic_2: repeat #2
Protocol: A549-mRuby cells were seeded (3,000 cells per well) in nine 384-well plates using Multidrop combi. Cells were seeded in a final volume of 30 μl with DMEM+10% BCS. The following day, 20 μl of OC43 were added (MOI 0.3) and incubated at 33° C., 5% CO2 for 1 hour. 50 nl from the Selleck FDA-approved drug library (cat #L1300, Selleck) were added (1:1,000 dilution). Two columns (32 wells) were left uninfected and two columns were treated with DMSO and virus (no drug control). Cells were imaged using the IncuCyte S3 to measure cell numbers at day 0. Cells were incubated for 4 days at 33° C., 5% CO2 and were stained for OC43 nucleoprotein. All the following steps were performed at room temperature. […] The screen was performed twice.
(§1) The following parameters were extracted from the images: number of cells at day 0, number of cells at day 4 and total OC43 staining intensity at day 4. For analysis, OC43 staining intensity was normalized to the number of cells in the well and further normalized to the mean of the no drug controls, which was set to 100. […] For each plate, a drug was considered as a putative hit if it reduced OC43 staining by over 3 standard deviations from the mean of the no drug controls. Drugs were considered hits if they were not toxic and reduced OC43 staining by over 3 standard deviations in both repeats.
(§2) A library of 1,900 clinically used drugs was screened, the drugs either approved for human use or having extensive safety data in humans (Phase 2 or 3 clinical trials), for their ability to inhibit OC43 infection of the human lung epithelial cell line A549 (expressing an H2B-mRuby nuclear reporter). One day after plating, cells were infected at an MOI of 0.3, incubated at 33° C. for 1 hour and drugs were added to a final concentration of 10 μM. Cells were then incubated at 33° C. for 4 days, fixed and stained for the presence of the viral nucleoprotein. The cells were imaged at day 0 (following drug addition) and day 4 (after staining) to determine the drugs effect on cell growth and OC43 infection.

OC43 = assay: Drug screening: OC43 nucleoprotein staining in infected A549-mRuby cells; assay type: cell-based, human beta coronavirus OC43; details: for activity at 10 µM: Betacoronavirus 1, OC43, 96 h
Protocol: A549-mRuby cells were seeded (3,000 cells per well) in nine 384-well plates using Multidrop combi. Cells were seeded in a final volume of 30 μl with DMEM+10% BCS. The following day, 20 μl of OC43 were added (MOI 0.3) and incubated at 33° C., 5% CO2 for 1 hour. 50 nl from the Selleck FDA-approved drug library (cat #L1300, Selleck) were added (1:1,000 dilution). Two columns (32 wells) were left uninfected and two columns were treated with DMSO and virus (no drug control). Cells were imaged using the IncuCyte S3 to measure cell numbers at day 0. Cells were incubated for 4 days at 33° C., 5% CO2 and were stained for OC43 nucleoprotein. All the following steps were performed at room temperature. Cells were fixed in 50 μl 4% PFA/PBS for 15 min, blocked with 50 μl 10% BSA+0.5% Triton X-100 in PBS for 30 minutes, stained with 50 μl anti-OC43 (cat #MAB9013, Milipore) diluted 1:2,000 in 2% BSA+0.1% Triton X-100 in PBS for 1 hour, washed with 50 μl PBS three times, stained with anti-mouse-AlexaFluor488 diluted 1:1,000 in 2% BSA+0.1% Triton X-100 in PBS for 1 hour, washed with 50 μl PBS three times and imaged on the IncuCyte S3 (day 4). The screen was performed twice.
as §1, §2

[1] = 10 μM drug, MOI 0.3, 4 days, OC43 staining normalized to no-drug controls, mean of the two screen repeats, read-out: OC43_mean
[2] = 10 μM drug, MOI 0.3, 4 days, normalized to no-drug controls in the same plate, repeat #1, read-out: OC43_1: % staining of OC43 in screen repeat #1
[3] = 10 μM drug, MOI 0.3, 4 days, normalized to no-drug controls in the same plate, repeat #2, read-out: OC43_2: % staining of OC43 in screen repeat #2
[4] = 10 μM drug, MOI 0.3, 4 days, OC43 staining normalized to no-drug controls, mean of the two screen repeats
[5] = 10 μM drug, MOI 0.3, 4 days, normalized to no-drug controls in the same plate, repeat #1
[6] = 10 μM drug, MOI 0.3, 4 days, normalized to no-drug controls in the same plate, repeat #2

Structure (SMILES)	Growth_1: number of cells at day 4 divided by number of cells at day 0 (A549-mRuby cells)	toxic_1 (A549-mRuby cells)	Growth_2: number of cells at day 4 divided by number of cells at day 0 (A549-mRuby cells)	toxic_2 (A549-mRuby cells)	hit_1 (OC43; 10 μM drug, repeat #1)	hit_2 (OC43; 10 μM drug, repeat #2)	activity at 10 µM (OC43; [1])	activity at 10 µM (OC43; [2])	activity at 10 µM (OC43; [3])	OC43_mean (OC43; [4])	OC43_1: % staining of OC43 in screen repeat #1 (OC43; [5])	OC43_2: % staining of OC43 in screen repeat #2 (OC43; [6])	activity at 10 µM (OC43; read-out: OC43_mean)
CC(C)(O)CNc1nc(Nc2ccnc(C(F)(F)F)c2)nc(-c2cccc(C(F)(F)F)n2)n1 [Enasidenib (AG-221), Enasidenib]	5.2	0	4.8	0	1	1	26.1%	23.3%	29%	–	–	–	–
CCC(=O)O[C@H]1[C@H](O[C@@H]2[C@@H](C)[C@H](O[C@H]3C[C@@](C)(OC)[C@@H](O)[C@H](C)O3)[C@@H](C)C(=O)O[C@H](CC)[C@@](C)(O)[C@H](O)[C@@H](C)C(=O)[C@H](C)C[C@@]2(C)O)O[C@H](C)C[C@@H]1N(C)C [Erythromycin estolate]	4.5	0	4.8	0	1	1	20.1%	24.2%	15.9%	–	–	–	–
CC[C@H]1OC(=O)[C@H](C)[C@@H](O[C@H]2C[C@@](C)(OC)[C@@H](O)[C@H](C)O2)[C@H](C)[C@@H](O[C@@H]2O[C@H](C)C[C@H](N(C)C)[C@H]2O)[C@](C)(O)C[C@@H](C)C(=O)[C@H](C)[C@@H](O)[C@]1(C)O.N#CS [Erythromycin thiocyanate]	4.1	0	4.6	0	1	1	–	–	–	58.7%	50.6%	66.8%	–
C#C[C@]1(O)CC[C@H]2[C@@H]3CCC4=CC(=O)CC[C@@H]4[C@H]3C(=C)C[C@@]21CC [Etonogestrel]	4.3	0	4.3	0	1	1	44.3%	47.8%	40.7%	–	–	–	–
CC1(C)O[C@@H]2C[C@H]3[C@@H]4C[C@H](F)C5=CC(=O)C=C[C@]5(C)[C@@]4(F)[C@@H](O)C[C@]3(C)[C@]2(C(=O)CO)O1 [Fluocinolone Acetonide]	3.5	0	4.0	0	1	1	45.5%	38.9%	52.2%	–	–	–	–
CCC(=O)O[C@]1(C(=O)SCF)[C@H](C)C[C@H]2[C@@H]3C[C@H](F)C4=CC(=O)C=C[C@]4(C)[C@@]3(F)[C@@H](O)C[C@@]21C [Fluticasone propionate]	3.8	0	4.2	0	1	1	–	–	–	48.8%	48.4%	49.2%	–
COCCCC/C(=N\OCCN)c1ccc(C(F)(F)F)cc1 [Fluvoxamine maleate]	5.4	0	4.5	0	1	1	–	22.7%	38.9%	–	–	–	30.8%
COc1cc2ncnc(Nc3ccc(F)c(Cl)c3)c2cc1OCCCN1CCOCC1 [Gefitinib (ZD1839), Gefitinib]	3.4	–	3.7	–	–	–	–	–	–	35.5%	39.7%	31.3%	–
